Data set [1] concerns FAO rat hepatoma cells. The data set is described as follows: Cell based assays (IR phosphorylation assays). As to conditions: prodrug vs parent carboxylic-phosphonic acid. From the text: Antibodies and Chemicals. The antibody against phosphorylated insulin receptor (pIR) and the ELISA kit for detection of pIR were from Biosource (Camarillo, Calif.). Rabbit anti-IR/IGF-1R [pYpY1162/1163] phosphospecific antibody recognizes both the insulin receptor (IR) and the insulin-like growth factor-1 receptor (IGF-1R) phosphorylated at the active site tyrosine residues, 1162 and 1163 (1135 and 1136 for IGF-1R) (pIR/pIGF-1R). The Insulin Receptor [pYpY1162/1163] […] HRP-conjugated secondary antibodies were from Cell Signaling Technology (Beverly, Mass.). The ECL detection system was from Amersham (Buckinghamshire, UK), and human insulin was from Invitrogen (Carlsbad, Calif.).
Tissue Culture. FAO rat hepatoma cells were obtained from ECACC (#89042701) and maintained at 37° C. in a 5% CO2 environment in Dulbecco's modified Eagle's medium with high glucose (DMEM-high glucose) (4500 mg/liter) supplemented with 10% FBS and 50 units/ml penicillin, 100 µg/ml streptomycin and 0.292 mg/ml L-glutamine. For assays, cells were seeded in 24-well plates at a density of 2×10^5 cells/well and maintained until they reached confluency (about 3 days).
IR phosphorylation assays. Cells in 24-well plates were serum starved overnight in DMEM-low glucose (1000 mg/liter) without serum. […] The pIR/pIGF-1R signals were scanned (HP scanjet 3570c) and quantified (Scion Image). […]

The text below walks through data of patent US7381736B2, “Thiazole and thiadiazole inhibitors of tyrosine phosphatases” (Metabasis Therapeutics, Inc., priority 2004, dated 2008).

In general, melting point refers to the temperature, or range, at which the solid turns liquid.

With `CC(C)(C)C(=O)OCOC(=O)c1ccc(-c2csc(NCc3ccc(C(F)(F)P(=O)(O)OCOC(=O)C(C)(C)C)c(Br)c3)n2)cc1` [4-[2-(3-Bromo-4-{[(2,2-dimethyl-propionyloxymethoxy)-hydroxy-phosphoryl]-difluoro-methyl}-benzylamino)-thiazol-4-yl]-benzoic acid 2,2-dimethyl-propionyloxymethyl ester], the “increase in activity in a cell-based assay as compared to the parent carboxylic-phosphonic acid” value in data set [1] was approximately 10 fold.

`O=C(O)c1cccc(Oc2cccc(-c3nn(Cc4ccc(C(F)(F)P(=O)(O)O)c(Cl)c4)c(=Nc4ccc(Cl)c(Cl)c4)s3)c2)c1` [Example 8, 3-{3-[4-[3-Chloro-4-(difluoro-phosphono-methyl)-benzyl]-5-(3,4-dichloro-phenylimino)-4,5-dihydro-[1,3,4]thiadiazol-2-yl]-phenoxy}-benzoic acid] showed a melting point of 212 to 215 °C.

As for `COC(=O)c1cccc(Oc2cccc(-c3nn(Cc4ccc(C(F)(F)P(=O)(O)O)c(Cl)c4)c(=Nc4ccc(Cl)c(Cl)c4)s3)c2)c1` [Example 9, 3-{3-[4-[3-Chloro-4-(difluoro-phosphono-methyl)-benzyl]-5-(3,4-dichloro-phenylimino)-4,5-dihydro-[1,3,4]thiadiazol-2-yl]-phenoxy}-benzoic acid methyl ester], the melting point was 137 to 139 °C.

Consider `O=C(O)c1cccc(Oc2cccc(-c3nn(Cc4ccc(C(F)(F)P(=O)(O)O)c(F)c4)c(=Nc4ccc(Cl)c(Cl)c4)s3)c2)c1` [Example 10, 3-(3-{5-(3,4-Dichloro-phenylimino)-4-[4-(difluoro-phosphono-methyl)-3-fluoro-benzyl]-4,5-dihydro-[1,3,4]thiadiazol-2-yl}-phenoxy)-benzoic acid], for which the melting point was in the range of 153 to 156 °C.

As to `COC(=O)c1cccc(Oc2cccc(-c3nn(Cc4ccc(C(F)(F)P(=O)(O)O)c(F)c4)c(=Nc4ccc(Cl)c(Cl)c4)s3)c2)c1` [Example 11, 3-(3-{5-(3,4-Dichloro-phenylimino)-4-[4-(difluoro-phosphono-methyl)-3-fluoro-benzyl]-4,5-dihydro-[1,3,4]thiadiazol-2-yl}-phenoxy)-benzoic acid methyl ester], the melting point fell in the range of 137 to 139 °C.

In turn, `O=C(O)c1cccc(Oc2cccc(-c3nnc(N(Cc4ccc(C(F)(F)P(=O)(O)O)c(Cl)c4)c4ccc(Cl)c(Cl)c4)s3)c2)c1` [Example 46, 3-(3-{5-[[3-Chloro-4-(difluoro-phosphono-methyl)-benzyl]-(3,4-dichloro-phenyl)-amino]-[1,3,4]thiadiazol-2-yl}-phenoxy)-benzoic acid] gave a melting point of 178 to 180 °C.

On to `COC(=O)c1cccc(Oc2cccc(-c3nnc(N(Cc4ccc(C(F)(F)P(=O)(O)O)c(Cl)c4)c4ccc(Cl)c(Cl)c4)s3)c2)c1` [Example 48, 3-(3-{5-[[3-Chloro-4-(difluoro-phosphono-methyl)-benzyl]-(3,4-dichloro-phenyl)-amino]-[1,3,4]thiadiazol-2-yl}-phenoxy)-benzoic acid methyl ester], for which the melting point is 73 to 76 °C.
